Assay results: the NIST ThermoML archive (doi:10.1021/acs.jced.7b00773)
± gives the expanded uncertainty stated by the source.

Conditions: Liquid

C=CCn1cc[n+](C)c1.O=S(=O)([N-]S(=O)(=O)C(F)(F)F)C(F)(F)F
Conditions	mass density, 372.5 K [kg/m3]	mass density, 373.15 K [kg/m3]	mass density, 392.8 K [kg/m3]	mass density, 413.1 K [kg/m3]	mass density, 432.7 K [kg/m3]	viscosity, 373.15 K [mPa·s]
100 kPa, Concentric cylinders viscometry	–	–	–	–	–	5.498 ± 0.26
100 kPa, Vibrating tube method	–	1427.3 ± 3.2	–	–	–	–
10000 kPa, Bellows volumetry	–	–	1417.8 ± 3.6	1399.4 ± 3.6	1381.4 ± 3.6	–
20000 kPa, Bellows volumetry	–	–	1427.3 ± 3.6	1409.4 ± 3.6	1392 ± 3.6	–
30000 kPa, Bellows volumetry	–	–	1436.1 ± 3.6	1418.9 ± 3.6	1401.8 ± 3.6	–
40000 kPa, Bellows volumetry	1461.6 ± 3.6	–	1444.4 ± 3.6	1427.7 ± 3.6	1411.1 ± 3.6	–
50000 kPa, Bellows volumetry	1469.1 ± 3.6	–	1452.4 ± 3.6	1436 ± 3.6	1419.9 ± 3.6	–
60000 kPa, Bellows volumetry	1476.1 ± 3.6	–	1459.8 ± 3.6	1443.8 ± 3.6	1428 ± 3.6	–
70000 kPa, Bellows volumetry	1482.9 ± 3.6	–	1466.9 ± 3.6	1451.3 ± 3.6	1435.9 ± 3.6	–
80000 kPa, Bellows volumetry	1489.5 ± 3.6	–	1473.7 ± 3.6	1458.4 ± 3.6	1443.4 ± 3.6	–
90000 kPa, Bellows volumetry	1495.6 ± 3.6	–	1480.1 ± 3.6	1465.2 ± 3.6	1450.5 ± 3.6	–
100000 kPa, Bellows volumetry	1501.6 ± 3.6	–	1486.5 ± 3.6	1471.7 ± 3.6	1457.2 ± 3.6	–
110000 kPa, Bellows volumetry	1507.5 ± 3.6	–	1492.5 ± 3.6	1478 ± 3.6	1463.7 ± 3.6	–
120000 kPa, Bellows volumetry	1513.3 ± 3.6	–	1498.5 ± 3.6	1484.2 ± 3.6	1470.1 ± 3.6	–
130000 kPa, Bellows volumetry	1518.7 ± 3.6	–	1504.2 ± 3.6	1490 ± 3.6	1476.1 ± 3.6	–
140000 kPa, Bellows volumetry	1524 ± 3.6	–	1509.6 ± 3.6	1495.8 ± 3.6	1482 ± 3.6	–
150000 kPa, Bellows volumetry	1529.2 ± 3.6	–	1514.9 ± 3.6	1501.3 ± 3.6	1487.7 ± 3.6	–
160000 kPa, Bellows volumetry	1534.2 ± 3.6	–	1520.2 ± 3.6	1506.6 ± 3.6	1493.2 ± 3.6	–
170000 kPa, Bellows volumetry	1539.1 ± 3.6	–	1525.3 ± 3.6	1511.8 ± 3.6	1498.6 ± 3.6	–
180000 kPa, Bellows volumetry	1544 ± 3.6	–	1530.2 ± 3.6	1516.9 ± 3.6	1503.9 ± 3.6	–
190000 kPa, Bellows volumetry	1548.6 ± 3.6	–	1535.1 ± 3.6	1521.8 ± 3.6	1508.9 ± 3.6	–
200000 kPa, Bellows volumetry	1553.4 ± 3.6	–	1539.9 ± 3.6	1526.8 ± 3.6	1514 ± 3.6	–
